The values that follow come from a melting point compilation (Tetko et al.).

The compound `Cc1cccn2cc(-c3ccc(N)cc3)nc12` yielded a melting point of 161 to 163 °C.
Compound `CC(C)C(=O)Nc1nc(CC(=O)O)cs1` yielded a melting point of 187 to 189 °C.
Then `BrCc1cccc2ccccc12`, with 49 to 51 °C; and `O=C(O)C1CC1c1ccncc1` (configuration not stated), with 228 to 230 °C; and `O=Cc1ccc(Cl)c2cccnc12`, with 132 to 134 °C.
With `O=S(=O)(Cl)c1ccc(Cl)c2ccccc12` the figure was 90 to 92 °C; with `Cc1n[nH]c(N)c1-c1ccc2c(c1)OCCO2`, 120 to 122 °C.
With `N#CC=CS(=O)(=O)c1ccc(Cl)cc1` the figure was 141 to 143 °C; with `CCOC(=O)Nc1ccc(Br)cc1N`, 79 to 81 °C.
`O=C(O)C1(OCc2ccccc2)CCOCC1` yielded a melting point of 69 to 71 °C.
Then `CCOc1ccc(NC(=O)c2ccc(NC(=O)CCl)cc2)cc1`, with 253 to 255 °C; and `CC(=O)Nc1c(C)cc(N)cc1C`, with 204 to 206 °C; and `CC1=NN(Cc2ccccc2)C(=O)C1`, with 175 to 177 °C.
In turn, `Cc1ccc(N)cc1S(=O)(=O)NC(C)(C)C` showed a melting point of 131 to 133 °C.
Then `Nc1c(-c2cccnc2)nc2ccccn12`, with 179 to 181 °C; and `CC(C)CCNC(N)=S`, with 93 to 95 °C; and `ClCc1nc2cc(Cl)ccc2s1`, with 99 to 101 °C.
Then `O=C1C=CC(=O)N1c1cnccn1`, with 116 to 118 °C.
Then `COC(=O)c1c(O)c(Cl)cc(Cl)c1Cl`, with 113 to 115 °C; and `O=C(Cc1ccc2ccccc2c1)NO`, with 185 to 187 °C; and `Sc1nnc(Nc2ccc(Oc3ccccc3)cc2)s1`, with 183 to 185 °C.
Take `NC(CN1CCCC1=O)c1ccccc1` (configuration not stated): the melting point lay within 99 to 101 °C.
With `CC(C)(C)c1ccc(NC(N)=S)cc1` the figure was 153 to 155 °C.
On to `CCc1ccc2c(c1)C(=O)C(=O)N2CC(=O)O`, for which the melting point lay in the range of 166 to 168 °C.
Then `Cc1c[nH]c(=O)n1-c1ccc(C#N)cc1`, with 230 to 232 °C.
Turning to `Cc1ccc(=O)n(CC(=O)O)n1`, the melting point was 249 to 251 °C.
Then `O=C1NC(=O)C(=O)C(=O)N1`, with 255 to 257 °C; and `O=C(CCl)NC1CCOc2ccccc21` (configuration not stated), with 86 to 88 °C.
Take `NCC1(O)Cc2ccccc2C1`: the melting point was 64 to 66 °C.
With `Cc1ccc(C)c(S(N)(=O)=O)c1` the figure was 149 to 151 °C.
With `O=C(O)c1cc(S(=O)(=O)Cl)c(Br)cc1F` the figure was 147 to 149 °C; with `CN(c1ccc(O)cc1)S(=O)(=O)c1ccc(Cl)cc1`, 154 to 156 °C.
Regarding `NS(=O)(=O)c1cc([N+](=O)[O-])ccc1F`, the melting point lay in the range of 139 to 141 °C.
Then `COc1ccc2c(O)c(C(=O)O)cnc2c1`, with 269 to 271 °C; and `N#Cc1cc(F)ccc1-n1ccc(N)n1`, with 128 to 130 °C; and `O=C(O)c1nn(-c2ccc(Cl)cc2)c2c1CCCCC2`, with 212 to 214 °C.
Then `O=C(Nc1ccc(F)cc1)N1CCC(=NO)CC1`, with 183 to 185 °C; and `O=C(O)c1cc2ccccc2c(OCC2CC2)n1`, with 177 to 179 °C.
Then `COc1cc(C=O)ccc1OCC(=O)O`, with 184 to 186 °C.
As for `Cn1c(=O)[nH]c(=O)c2ccc(C(=O)O)nc21`, the melting point was 305 to 307 °C.
Then `O=[N+]([O-])c1c[nH]nc1-c1ccncc1`, with 216 to 218 °C.
For `Cc1cccc(-n2c(C)cc(C(=O)CCl)c2C)c1`, the melting point is 99 to 101 °C.
Turning to `Cc1cnc(Br)nc1Br`, the melting point lay in the range of 58 to 60 °C.
Then `NCCCN1CCC(C(N)=O)CC1`, with 94 to 96 °C; and `Cn1ccc(C(=O)N2CCC[C@H]2C(=O)O)cc1=O`, with 149 to 151 °C.
With `COc1cc(O)ncc1Br` the figure was 203 to 205 °C; with `Cc1ccc(N)cc1S(=O)(=O)Nc1cccc(Cl)c1`, 158 to 160 °C.
With `COc1ccc(C(=O)NC(C(=O)O)c2ccccc2)cc1` (configuration not stated) the figure was 187 to 189 °C; with `Nc1ccc(S(=O)(=O)NC2CC2)cn1`, 169 to 171 °C; with `CC(Cl)c1nnc(-c2cccs2)o1` (configuration not stated), 211 to 213 °C.
`CCOC(=O)c1cnn2cccnc12` gave a melting point of 117 to 119 °C.
With `COc1cc(C=O)ccc1OCc1c(C)noc1C`, the melting point fell in the range of 111 to 115 °C.
With `CC(=O)NC1CCN(C(C)C)CC1` the figure was 84 to 86 °C.
In turn, `Cc1cc(NC(=O)C2CC2)sc1C(=O)O` gave a melting point of 184 to 186 °C.
The compound `COc1cc(C#N)ccn1` yielded a melting point of 94 to 96 °C.
Then `Cc1ccc(S(=O)(=O)N(O)c2ccccc2)cc1`, with 36 to 40 °C.
`NC(=O)C1(N)CCOCC1`: the melting point lay in the range of 78 to 80 °C.
Take `CC(C)(C)c1ccc(C(=O)C(=O)O)cc1`: the melting point fell in the range of 67 to 69 °C.
Then `Nc1cc(S(=O)(=O)Nc2ccccc2Cl)ccc1Cl`, with 89 to 93 °C.
Then `Cn1c(S)nnc1C1CCS(=O)(=O)C1` (configuration not stated), with 151 to 153 °C.
With `Cn1c(S)nnc1-c1ccco1`, the melting point is 179 to 181 °C.
Then `O=C(O)c1cccnc1N1CCCCC1`, with 94 to 96 °C.
Take `O=C(O)CCNC(=O)c1ccc2[nH]ncc2c1`: the melting point lay in the range of 240 to 242 °C.
With `O=C1CC(C(=O)O)C(C(=O)O)C1` (configuration not stated) the figure was 186 to 188 °C.
Then `Nc1cc(Cl)ccc1NCc1ccccc1`, with 77 to 81 °C; and `Cc1cc(C)nc(C#N)c1`, with 43 to 45 °C.
With `CC1Nc2ccccc2NC1=O` (configuration not stated) the figure was 130 to 132 °C; with `NCC(O)C1CCCCC1` (configuration not stated), 85 to 87 °C; with `Nc1cccc(NC(=O)N2CCCCCC2)c1`, 121 to 123 °C.
As for `Nc1nnc(-c2cccc([N+](=O)[O-])c2)o1`, the melting point lay in the range of 256 to 258 °C.
Then `CC(=O)c1ccccc1NS(=O)(=O)c1cccs1`, with 150 to 152 °C.
Then `CC(Cl)C(=O)c1c[nH]c2ncccc12` (configuration not stated), with 162 to 164 °C.
Then `CCN(CC)S(=O)(=O)c1ccc2nc(O)cc(C(=O)O)c2c1`, with 310 to 312 °C.
In the case of `O=C(O)CNC(=O)c1ccccc1Br`, the melting point is 138 to 140 °C.
Then `O=C(O)c1c[nH]c2nccc(Cl)c12`, with 189 to 191 °C; and `Nc1cccc(S(=O)(=O)Nc2cccc(Cl)c2)c1`, with 107 to 109 °C.
Then `Cc1ccc(C#N)c(=O)n1C`, with 129 to 131 °C; and `Oc1ccnc(C2CC2)n1`, with 152 to 154 °C.
With `O=S1(=O)CCNCC12CCCCC2` the figure was 99 to 101 °C; with `Cc1ccccc1-c1nnc(CCl)o1`, 99 to 101 °C.
The compound `O=C(O)C1CCn2ccnc2C1` (configuration not stated) registered a melting point of 231 to 233 °C.
In turn, `Nc1cc(Cl)c(S(N)(=O)=O)cc1[N+](=O)[O-]` came in with a melting point of 257 to 259 °C.
With `Cc1ccc(C#N)c(Sc2ccccc2)c1` the figure was 59 to 61 °C; with `CCOc1ccc(N)c(C(N)=O)c1`, 148 to 150 °C.
Then `CC(Cl)C(=O)Nc1ccc(C(C)(C)C)cc1` (configuration not stated), with 143 to 145 °C; and `O=C(O)CCNC(=O)C12CC3CC(CC(C3)C1)C2`, with 185 to 187 °C.
Then `CC(C)c1nc(S(=O)(=O)Cl)c[nH]1`, with 162 to 164 °C; and `NC(=S)COCc1ccccc1`, with 43 to 45 °C.
On to `NNC(=O)C(=O)N1CCCC1`, for which the melting point fell in the range of 117 to 119 °C.
Then `O=C(O)c1cc(S(=O)(=O)Cl)c(Br)s1`, with 109 to 111 °C; and `CC1NC(=O)c2ccccc2N(C)C1=O` (configuration not stated), with 250 to 252 °C.
With `NC(=S)c1cccc([N+](=O)[O-])c1` the figure was 132 to 134 °C.
With `CCSc1ccccc1C(=O)O` the figure was 135 to 137 °C; with `CC(C)(C)NS(=O)(=O)c1ccccc1CN`, 131 to 133 °C; with `CN(C)C(=O)c1ccc(C(=O)O)cc1`, 178 to 180 °C.
As for `O=C(O)CCNC(=O)c1ccco1`, the melting point was in the range of 135 to 139 °C.
Then `COc1ccc(-c2nnc(S)o2)cc1`, with 202 to 204 °C; and `Cc1c(N)cccc1N1CCOC1=O`, with 140 to 142 °C; and `CC1CSc2ccc(Br)cc2C1=O` (configuration not stated), with 65 to 67 °C.
With `Clc1ccc(-c2n[nH]cc2Br)cc1` the figure was 140 to 142 °C; with `COc1ccc(Sc2nsc(N)n2)cc1`, 138 to 140 °C; with `O=C(O)c1c[nH]nn1`, 212 to 214 °C.
`Cc1ccc(-c2nn(Cc3ccccc3)cc2/C=C/C(=O)O)cc1` came in with a melting point of 107 to 109 °C.
With `O=C(O)c1ccc([N+](=O)[O-])cc1Br` the figure was 164 to 166 °C; with `COc1cc(C=O)cc(Br)c1OC(F)F`, 90 to 92 °C; with `CS(=O)(=O)N1CCC(=O)CC1`, 97 to 99 °C.
Take `NCC(O)c1ccc(Cl)cc1` (configuration not stated): the melting point lay within 97 to 99 °C.
`O=S(=O)(c1ccc2oc(S)nc2c1)N1CCCCC1` gave a melting point of 139 to 141 °C.
Then `COC(=O)NCC(=O)O`, with 93 to 95 °C; and `Cc1nc(-c2ccccc2Cl)sc1C(=O)O`, with 217 to 219 °C; and `NCCNS(=O)(=O)c1cccc(Cl)c1`, with 84 to 86 °C.
As to `CN1C(=O)CC(C(=O)O)C1c1ccccc1` (configuration not stated), the melting point is 126 to 128 °C.
With `O=c1cc(CCl)nc2sccn12` the figure was 180 to 182 °C.
With `Nc1cc(-c2ccccc2)ns1` the figure was 159 to 161 °C; with `O=Cc1ccc(-c2ccc([N+](=O)[O-])cc2Br)o1`, 132 to 136 °C.
Then `N#Cc1ccc(S(=O)(=O)N2CCOCC2)cc1`, with 158 to 160 °C; and `O=C(O)c1cccc(C(=O)N2CCCC2)n1`, with 125 to 127 °C.
Compound `Nc1cccc(CS(=O)c2ccccc2)c1` (configuration not stated) came in with a melting point of 133 to 135 °C.
Then `Cc1cc(F)ccc1-n1cc(C(=O)O)nn1`, with 129 to 131 °C; and `O=C(O)CCC(=O)c1ccc2ccc3cccc4ccc1c2c34`, with 184 to 186 °C; and `Cc1ccc(N2CC(C(=O)O)CC2=O)cc1` (configuration not stated), with 184 to 186 °C.
Then `CNc1cc(C(=O)OC)ccc1[N+](=O)[O-]`, with 137 to 139 °C.
